How the values were obtained:
[1] = Thermogravimetric (TGA) analysis; format: physicochemical
Experimental: The thermogravimetric (TGA) analysis was obtained using a TGA-SDTA-851 Mettler-Toledo, serial number 5118408555. Samples were placed into a tared aluminium pan and then positioned on a platinum crucible. Samples were heated from 30° C. at 10° C./min to 350° C. The instrument was calibrated using indium and aluminium standards.

[2] = Differential scanning calorimetry (DSC) analysis; format: physicochemical; details: equilibrated at 30° C., heated at 10° C./min to 300° C.
Experimental: The differential scanning calorimetry (DSC) analysis was obtained using a DSC-821 Mettler-Toledo, serial number 5117423874. Samples were weighed into an aluminium pan, an aluminium lid placed on top of the sample and compressed with a brass rod. Samples were equilibrated at 30° C. and heated at 10° C./min to 300° C. The instrument was calibrated using indium and zinc standards.

In the case of `O=S(=O)(O)c1cccc2c(S(=O)(=O)O)cccc12.O=c1ccc2c([C@@H](O)CNCCCCCCOCC(F)(F)c3ccccc3)ccc(O)c2[nH]1.O=c1ccc2c([C@@H](O)CNCCCCCCOCC(F)(F)c3ccccc3)ccc(O)c2[nH]1` [5-(-2-(6-(2,2-Difluoro-2-phenylethoxy)hexylamino)-1(R)-hydroxyethyl)-8-hydroxyquinolin-2(1H)-one heminapadisylate], the “weight loss due to the decomposition of the sample” value ([1]; from approximately 200° C. to 220° C., heated from 30° C. at 10° C./min to 350° C.) is reported as 3.1 % w/w, the “hygroscopicity (no solvent/water release)” value ([1]; prior to 200° C., in particular at 80-100° C., no change) is reported as “lack of hygroscopicity” and the “stability (no changes prior to the melting point range; no conversion into other polymorphs, no decomposition)” value [2] is reported as “high stability”.
